Measurements published in patent publication EP0238198A2, “Method of modifying the lipid structure function and expression of cell membranes and pharmaceutical compositions for use therein” (Habib, Nagy Adly, priority 1986, dated 1987).

Experiments:
D23 Rat hepatoma = test: tumour cell colony inhibition test (clonogenic assay); assay type: cell-based; set-up: inhibition of colony formation: dose or concentration left out as unconfirmed; conditions: for Mean no colonies ± SE: 5 days, medium control 41.8±3.5
Description: (§1) Cells from rat mammary carcinoma (Sp 22), primary rat fibroblasts (from alveolar tissue) and four rat hepatoma cell lines (D23, D261, D262A and D262B) were studied.
(§2) The method used for rat cells was as follows: 200 cells were plated per dish in 1 ml 'Eagles' methionine enriched medium (MEM) + 10% newborn calf serum (NBCS) in 30 mm culture dishes and incubated for four hours at 37°C. All became firmly adherent during this initial incubation. […] To control dishes 1 ml of MEM + NBCS was added, or 1 ml of MEM + NBCS + 1% ethanol. The dishes were incubated for 5 days. Medium was then removed, and the cell colonies were rinsed with 0.9% W/V NaCl solution and fixed for 15 minutes with methanol. Cell colonies were stained with 1% aqueous crystal violet and the dishes were allowed to dry.

D261 Rat hepatoma = test: as above; assay type: cell-based; conditions: for Mean no colonies ± SE: 5 days, medium control 33.0±5.1
Description: as §1
as §2, with “incubation. […] Dilutions containing 20 µg/ml, […], 200 ng/ml and 2 ng/ml were prepared, 1 ml of each dilution was added to four dishes of cells, the final concentration being half the concentration of the material added.” for “incubation.”

[1] = test system: Sp22 Rat mammary carcinoma; test: as above; assay type: cell-based; conditions: for Mean no colonies ± SE: 5 days, medium control 61.0±6
Description: as §1
as §2, with “incubation. […] Dilutions containing 20 µg/ml, […], 200 ng/ml and 2 ng/ml were prepared, 1 ml of each dilution was added to four dishes of cells, the final concentration being half the concentration of the material added.” for “incubation.”

D262B Rat hepatoma = test: as above; assay type: cell-based; conditions: for Mean no colonies ± SE: 5 days, medium control 37.0± 4.0
Description: as §1
as §2, with “incubation. […] Dilutions containing 20 µg/ml, […], 200 ng/ml and 2 ng/ml were prepared, 1 ml of each dilution was added to four dishes of cells, the final concentration being half the concentration of the material added.” for “incubation.”

[2] = test system: three cancer cell lines from bladder, testis and hepatoma (liver cancer); test: clonogenic assay with three cancer cell lines; assay type: cell-based; set-up: inhibition of cell division: dose or concentration left out as unconfirmed
Description: In vitro studies have been conducted using a clonogenic assay utilising three cancer cell lines from bladder, testis and hepatoma (liver cancer), incubating the cells for two weeks with saturated fatty acids. The control cells were incubated without any addition. The control cells grew during this time period and formed multiple colonies, as was expected.

[3] = test system: Primary rat fibroblasts (from alveolar tissue); test: colony inhibition test (clonogenic assay); assay type: cell-based; conditions: for Mean no colonies ± SE: 5 days, medium control 55.0±4.6
Description: as §1
as §2, with “[…] Dilutions containing 20 µg/ml, […], 200 ng/ml and 2 ng/ml were prepared, 1 ml of each dilution was added to four dishes of cells, the final concentration being half the concentration of the material added.” for “All became firmly adherent during this initial incubation.”

malignant cells = test: tumour development in animals implanted with malignant cells; assay type: in vivo
[4] = test system: 833K (non-seminomatous testicular germ cell tumour); test: tumour cell colony inhibition test (clonogenic assay); assay type: cell-based, human
Description: as §1
(§3) The human tumour cell lines were investigated as follows: 500 exponentially-growing RTl12 (transitional cell carcinoma of the bladder) cells or two hundred 833K (non-seminomatous testicuLar.germ cell tumour) cells were plated in 5 cm dishes in RPMI1640 medium supplemented with 5% foetal calf serum and 2 mM 1-glutamine. […] Following a further 14 days incubation colonies were fixed, stained and counted. Colony-forming efficiency of the treated cells was expressed as a proportion of that in the controls. The experiments were repeated three times to permit statistical analysis.

[5] = test system: RT112 (transitional cell carcinoma of the bladder); test: as above; assay type: cell-based, human
Description: as §1, §3

[6] = Rattus norvegicus, 120 h, read-out: % colony formation relative to medium control
[7] = Rattus norvegicus, Fibroblast, 120 h, read-out: % colony formation relative to medium control
[8] = Homo sapiens, 833K, 336 h, read-out: Colony-forming ability (± standard error)
[9] = summary of Table 3, dose-related response
[10] = Homo sapiens, RT-112, 336 h, read-out: Colony-forming ability (± standard error)

`CCCCCCCCCCCCCCCCCC(=O)O` [stearic acid, octadecanoic acid] was tested, and the “inhibition of colony formation” value (D23 Rat hepatoma) was “significant inhibition of colony formation”, the activity at 0.01 µg/mL (D23 Rat hepatoma; [6]) was 101% and the activity at 0.1 µg/mL (D23 Rat hepatoma; [6]) was 88.5%. For the same compound, the activity at 1 µg/mL (D23 Rat hepatoma; [6]) was 67%, the activity at 10 µg/mL (D23 Rat hepatoma; [6]) was 67% and the activity at 50 µg/mL (D23 Rat hepatoma; [6]) was 23%. For the same compound, the “Mean no colonies ± SE” value (D23 Rat hepatoma; stearic acid 10ng/ml) was 42.3±1.6, the “Mean no colonies ± SE” value (D23 Rat hepatoma; stearic acid 100 ng/ml) was 37.0±1.5 and the “Mean no colonies ± SE” value (D23 Rat hepatoma; stearic acid 1μg/ml) was 28.0±1.5. For the same compound, the “Mean no colonies ± SE” value (D23 Rat hepatoma; stearic acid 10 μg/ml) was 28.0±2.9, the “Mean no colonies ± SE” value (D23 Rat hepatoma; stearic acid 50 μg/ml) was 10.0±2.6 and the activity at 1 µg/mL (D261 Rat hepatoma; [6]) was 64.5%. For the same compound, the activity at 10 µg/mL (D261 Rat hepatoma; [6]) was 54.5%, the activity at 50 µg/mL (D261 Rat hepatoma; [6]) was 18.1% and the “inhibition of colony formation” value (D261 Rat hepatoma; dose of 10 µg/ml) was “significant inhibition of colony formation”. The “Mean no colonies ± SE” value (D261 Rat hepatoma; stearic acid 1μg/ml) was 21.0±3.0, the “Mean no colonies ± SE” value (D261 Rat hepatoma; stearic acid 10 μg/ml) was 18.0±1.5 and the “Mean no colonies ± SE” value (D261 Rat hepatoma; stearic acid 50 μg/ml) was 6.0±3.0. The activity at 0.001 µg/mL [1, 6] was 83%, the activity at 0.01 µg/mL [1, 6] was 91% and the activity at 0.1 µg/mL [1, 6] was 86%. The activity at 1 µg/mL [1, 6] was 93%, the activity at 10 µg/mL [1, 6] was 96% and the activity at 50 µg/mL [1, 6] was 84%. For the same compound, the “Mean no colonies ± SE” value ([1]; stearic acid 1ng/ml) was 54.0±10, the “Mean no colonies ± SE” value ([1]; stearic acid 10 ng/ml) was 55.7±3 and the “Mean no colonies ± SE” value ([1]; stearic acid 100 ng/ml) was 52.5±6. For the same compound, the “Mean no colonies ± SE” value ([1]; stearic acid 1µg/ml) was 56.7±3, the “Mean no colonies ± SE” value ([1]; stearic acid 10 µg/ml) was 58.7±1 and the “Mean no colonies ± SE” value ([1]; stearic acid 50 µg/ml) was 51.2±6. The “inhibition of colony development” value ([1]; summary of Table 2) was “failed to inhibit”, the activity at 0.1 µg/mL (D262B Rat hepatoma; [6]) was 111% and the activity at 1 µg/mL (D262B Rat hepatoma; [6]) was 83.8%. The activity at 10 µg/mL (D262B Rat hepatoma; [6]) was 67.6%, the activity at 50 µg/mL (D262B Rat hepatoma; [6]) was 48.6% and the “inhibition of colony formation” value (D262B Rat hepatoma; dose of 10 µg/ml) was “significant inhibition of colony formation”. For the same compound, the “Mean no colonies ± SE” value (D262B Rat hepatoma; stearic acid 100 ng/ml) was 41.0± 1.8, the “Mean no colonies ± SE” value (D262B Rat hepatoma; stearic acid 1μg/ml) was 31.0± 5.8 and the “Mean no colonies ± SE” value (D262B Rat hepatoma; stearic acid 10 μg/ml) was 25.0± 2.8. The “Mean no colonies ± SE” value (D262B Rat hepatoma; stearic acid 50 μg/ml) was 18.0± 4.5, the “cell division (colony formation)” value ([2]; incubation for two weeks, inhibition related to dose) was “failed to divide” and the “inhibition of cell division” value ([2]; two weeks) was “complete inhibition of cell division”. The activity at 0.001 µg/mL [3, 7] was 90%, the activity at 0.01 µg/mL [3, 7] was 108% and the activity at 0.1 µg/mL [3, 7] was 85.8%. The activity at 1 µg/mL [3, 7] was 88.2%, the activity at 10 µg/mL [3, 7] was 96.5% and the activity at 50 µg/mL [3, 7] was 86.4%. The “Mean no colonies ± SE” value ([3]; stearic acid 1ng/ml) was 49.5±9.5, the “Mean no colonies ± SE” value ([3]; stearic acid 100 ng/ml) was 47.2±9.4 and the “Mean no colonies ± SE” value ([3]; stearic acid 1µg/ml) was 48.5±9.2. The “Mean no colonies ± SE” value ([3]; stearic acid 10 µg/ml) was 52.0±7.7, the “Mean no colonies ± SE” value ([3]; stearic acid 50 µg/ml) was 47.5±6.0 and the “inhibition of colony development” value ([3]; summary of Table 2) was “failed to inhibit”. The development of tumours (malignant cells) was “inhibits the development of tumours”, the activity at 1 µg/mL [4, 8] was 81.5% and the activity at 2 µg/mL [4, 8] was 70.4%. For the same compound, the activity at 4 µg/mL [4, 8] was 27.5%, the activity at 6 µg/mL [4, 8] was 0.9% and the activity at 8 µg/mL [4, 8] was 0%. The activity at 10 µg/mL [4, 8] was 0%, the “inhibition of colony formation” value [4, 9] was “inhibited colony formation” and the activity at 1 µg/mL [5, 10] was 92%. For the same compound, the activity at 2 µg/mL [5, 10] was 86%, the activity at 4 µg/mL [5, 10] was 45% and the activity at 6 µg/mL [5, 10] was 4.6%. For the same compound, the activity at 8 µg/mL [5, 10] was 0.3%, the activity at 10 µg/mL [5, 10] was 0% and the “inhibition of colony formation” value [5, 9] was “inhibited colony formation”.
